Measured values taken from patent publication US20070244103A1, “Novel Compounds Having an Anti-Bacterial Activity” (Morphochem Aktiengesellschaft Fur Kombinatorische Chemie, priority 2004, published 2007).

Experiment: MIC of the examples against various organisms
Type: cell-based
Settings: against at least two of the above organisms (12-strain panel)
Protocol: The MIC (μg/ml) of the examples against various organisms was determined: A. baumannii ATCC19606, E. cloacae ATCC23355, E. coli ATCC25922, K. pneumoniae ATCC27736, P. mirabilis ATCC29906, P. aeruginosa ATCC27853, S. maltophilia ATCC13637, S. aureus ATCC43300, S. epidermidis ATCC14990, S. haemolyticus ATCC29970, E. faecalis ATCC29212 and E. faecium ATC19434.

Row | SMILES | MIC [µg/mL]
1 | COc1ccc2nccc(C(O)CN3CCCC(CNCc4ccc5c(c4)OCCO5)C3)c2n1 (single isomer, unassigned) [Example 3, 2-(3-{[(2,3-Dihydro-benzo[1,4]dioxin-6-ylmethyl)-amino]-methyl}-piperidin-1-yl)-1-(6-methoxy-[1,5]-naphthyridin-4-yl)-ethanol] | ≤ 2
2 | COc1ccc2nccc(C(O)CN3CCCC(CNCc4ccc5c(c4)NC(=O)CS5)C3)c2n1 (single isomer, unassigned) [Example 6, 6-[({1-[2-Hydroxy-2-(6-methoxy-[1,5]-naphthyridin-4-yl)-ethyl]-piperidin-3-ylmethyl}-amino)-methyl]-4H-benzo[1,4]thiazin-3-one] | ≤ 2
3 | COc1ccc2nccc(C(O)CN3CCCC(CNC/C=C/c4ccccc4)C3)c2n1 (single isomer, unassigned) [Example 7, 1-(6-Methoxy-[1,5]-naphthyridin-4-yl)-2-{3-[((E)-3-phenyl-allylamino)-methyl]-piperidin-1-yl}-ethanol] | ≤ 2
4 | COc1ccc2nccc(C(O)CN3C4CCC3CC(NCc3ccc5c(c3)NC(=O)CO5)C4)c2n1 (single isomer, unassigned) [Example 8, 6-({8-[2-Hydroxy-2-(6-methoxy-[1,5]-naphthyridin-4-yl)-ethyl]-8-aza-bicyclo[3.2.1]oct-3-ylamino}-methyl)-4H-benzo[1,4]oxazin-3-one] | ≤ 2
5 | COc1ccc2nccc(C(O)CN3C4CCC3CC(NCc3ccc5c(c3)OCO5)C4)c2n1 (single isomer, unassigned) [Example 9, 2-{3-[(Benzo[1,3]dioxol-5-ylmethyl)-amino]-8-aza-bicyclo[3.2.1]oct-8-yl}-1-(6-methoxy-[1,5]-naphthyridin-4-yl)-ethanol] | ≤ 2
6 | COc1ccc2nccc(C(O)CN3C4CCC3CC(NCc3ccc5c(c3)OCCO5)C4)c2n1 (single isomer, unassigned) [Example 10, 2-{3-[(2,3-Dihydro-benzo[1,4]dioxin-6-ylmethyl)-amino]-8-aza-bicyclo[3.2.1]oct-8-yl}-1-(6-methoxy-[1,5]-naphthyridin-4-yl)-ethanol] | ≤ 2
7 | COc1ccc2nccc(C(O)CN3C4CCC3CC(NCc3ccc5nsnc5c3)C4)c2n1 (single isomer, unassigned) [Example 11, 2-{3-[(Benzo[1,2,5]thiadiazol-5-ylmethyl)-amino]-8-aza-bicyclo[3.2.1]oct-8-yl}-1-(6-methoxy-[1,5]-naphthyridin-4-yl)-ethanol] | ≤ 2
8 | COc1ccc2nccc(C(O)CN3C4CCC3CC(NCc3ccc5c(c3)NC(=O)CS5)C4)c2n1 (single isomer, unassigned) [Example 13, 6-({8-[2-Hydroxy-2-(6-methoxy-[1,5]-naphthyridin-4-yl)-ethyl]-8-aza-bicyclo[3.2.1]oct-3-ylamino}-methyl)-4H-benzo[1,4]thiazin-3-one] | ≤ 2
9 | COc1ccc2nccc(C(O)CN3C4CCC3CC(NC/C=C/c3ccccc3)C4)c2n1 (single isomer, unassigned) [Example 14, 1-(6-Methoxy-[1,5]-naphthyridin-4-yl)-2-[3-((E)-3-phenyl-allylamino)-8-aza-bicyclo[3.2.1]oct-8-yl]-ethanol] | ≤ 2
10 | COc1cnc2cccc(C(O)CN3C4CCC3CC(NC/C=C/c3ccccn3)C4)c2c1 (single isomer, unassigned) [Example 35, 1-(3-Methoxy-quinolin-5-yl)-2-[3-((E)-3-pyridin-2-yl-allylamino)-8-aza-bicyclo[3.2.1]oct-8-yl]-ethanol] | ≤ 2
11 | COc1cnc2cccc(C(O)CN3C4CCC3CC(NCc3ccc5c(c3)NC(=O)CS5)C4)c2c1 (single isomer, unassigned) [Example 36, 6-({8-[2-Hydroxy-2-(3-methoxy-quinolin-5-yl)-ethyl]-8-aza-bicyclo[3.2.1]oct-3-ylamino}-methyl)-4H-benzo[1,4]thiazin-3-one] | ≤ 2
12 | COc1cnc2cccc(C(O)CN3C4CCC3CC(NCc3ccc5c(n3)NC(=O)CS5)C4)c2c1 (single isomer, unassigned) [Example 37, 6-({8-[2-Hydroxy-2-(3-methoxy-quinolin-5-yl)-ethyl]-8-aza-bicyclo[3.2.1]oct-3-ylamino}-methyl)-4H-pyrido[3,2-b][1,4]thiazin-3-one] | ≤ 2
13 | COc1cnc2cccc(C(O)CN3CCCC(CNCc4ccc5nsnc5c4)C3)c2c1 (single isomer, unassigned) [Example 41, 2-(3-{[(Benzo[1,2,5]thiadiazol-5-ylmethyl)-amino]-methyl}-piperidin-1-yl)-1-(3-methoxy-quinolin-5-yl)-ethanol] | ≤ 2
14 | COc1cnc2cccc(C(O)CN3CCCC(CNCc4ccc5c(n4)NC(=O)CS5)C3)c2c1 (single isomer, unassigned) [Example 42, 6-[({1-[2-Hydroxy-2-(3-methoxy-quinolin-5-yl)-ethyl]-piperidin-3-ylmethyl}-amino)-methyl]-4H-pyrido[3,2-b][1,4]thiazin-3-one] | ≤ 2
15 | COc1cnc2cccc(C(O)CN3CCCC(CNCc4cc5c(cn4)OCCO5)C3)c2c1 (single isomer, unassigned) [Example 43, 2-(3-{[(2,3-Dihydro-[1,4]dioxino[2,3-c]pyridin-7-ylmethyl)-amino]-methyl}-piperidin-1-yl)-1-(3-methoxy-quinolin-5-yl)-ethanol] | ≤ 2
16 | COc1cnc2cccc(C(O)CN3CCCC(CNCc4ccc5c(c4)OCO5)C3)c2c1 (single isomer, unassigned) [Example 44, 2-(3-{[(Benzo[1,3]dioxol-5-ylmethyl)-amino]-methyl}-piperidin-1-yl)-1-(3-methoxy-quinolin-5-yl)-ethanol] | ≤ 2
17 | COc1cnc2cccc(C(O)CN3CCCC(CNCc4ccc5c(c4)NC(=O)CO5)C3)c2c1 (single isomer, unassigned) [Example 45, 6-[({1-[2-Hydroxy-2-(3-methoxy-quinolin-5-yl)-ethyl]-piperidin-3-ylmethyl}-amino)-methyl]-4H-benzo[1,4]oxazin-3-one] | ≤ 2
18 | COc1ccc2ncc(Cl)c(C(O)CN3C4CCC3CC(NCc3ccc5c(c3)NC(=O)CS5)C4)c2c1 (single isomer, unassigned) [Example 57, 6-({8-[2-(3-Chloro-6-methoxy-quinolin-4-yl)-2-hydroxy-ethyl]-8-aza-bicyclo[3.2.1]oct-3-ylamino}-methyl)-4H-benzo[1,4]thiazin-3-one] | ≤ 2
19 | COc1ccc2ncc(Cl)c(C(O)CN3C4CCC3CC(NCc3ccc5nsnc5c3)C4)c2c1 (single isomer, unassigned) [Example 58, 2-{3-[(Benzo[1,2,5]thiadiazol-5-ylmethyl)-amino]-8-aza-bicyclo[3.2.1]oct-8-yl}-1-(3-chloro-6-methoxy-quinolin-4-yl)-ethanol] | ≤ 2
20 | COc1ccc2ncc(Cl)c(C(O)CN3C4CCC3CC(NCc3ccc5nonc5c3)C4)c2c1 (single isomer, unassigned) [Example 59, 2-{3-[(Benzo[1,2,5]oxadiazol-5-ylmethyl)-amino]-8-aza-bicyclo[3.2.1]oct-8-yl}-1-(3-chloro-6-methoxy-quinolin-4-yl)-ethanol] | ≤ 2
21 | COc1ccc2ncc(Cl)c(C(O)CN3C4CCC3CC(NCc3cc5c(cc3F)SCC(=O)N5)C4)c2c1 (single isomer, unassigned) [Example 60, 6-({8-[2-(3-Chloro-6-methoxy-quinolin-4-yl)-2-hydroxy-ethyl]-8-aza-bicyclo[3.2.1]oct-3-ylamino}-methyl)-7-fluoro-4H-benzo[1,4]thiazin-3-one] | ≤ 2
22 | COc1ccc2ncc(Cl)c(C(O)CN3C4CCC3CC(NCc3ccc5c(c3)OCO5)C4)c2c1 (single isomer, unassigned) [Example 61, 2-{3-[(Benzo[1,3]dioxol-5-ylmethyl)-amino]-8-aza-bicyclo[3.2.1]oct-8-yl}-1-(3-chloro-6-methoxy-quinolin-4-yl)-ethanol] | ≤ 2
23 | COc1ccc2ncc(Cl)c(C(O)CN3C4CCC3CC(NCc3ccc5c(c3)OCCO5)C4)c2c1 (single isomer, unassigned) [Example 62, 1-(3-Chloro-6-methoxy-quinolin-4-yl)-2-{3-[(2,3-dihydro-benzo[1,4]dioxin-6-ylmethyl)-amino]-8-aza-bicyclo[3.2.1]oct-8-yl}-ethanol] | ≤ 2
24 | COc1ccc2ncc(Cl)c(C(O)CN3C4CCC3CC(NC/C=C/c3ccccc3)C4)c2c1 (single isomer, unassigned) [Example 63, 1-(3-Chloro-6-methoxy-quinolin-4-yl)-2-[3-((E)-3-phenyl-allylamino)-8-aza-bicyclo[3.2.1]oct-8-yl]-ethanol] | ≤ 2
25 | COc1ccc2ncc(Cl)c(C(O)CN3CCCC(CNCc4ccc5c(c4)OCO5)C3)c2c1 (single isomer, unassigned) [Example 65, 2-(3-{[(Benzo[1,3]dioxol-5-ylmethyl)-amino]-methyl}-piperidin-1-yl)-1-(3-chloro-6-methoxy-quinolin-4-yl)-ethanol] | ≤ 2
26 | COc1ccc2ncc(Cl)c(C(O)CN3CCCC(CNCc4ccc5c(c4)OCCO5)C3)c2c1 (single isomer, unassigned) [Example 66, 1-(3-Chloro-6-methoxy-quinolin-4-yl)-2-(3-{[(2,3-dihydro-benzo[1,4]dioxin-6-ylmethyl)-amino]-methyl}-piperidin-1-yl)-ethanol] | ≤ 2
27 | COc1ccc2ncc(Cl)c(C(O)CN3CCCC(CNCc4cc5c(cc4F)SCC(=O)N5)C3)c2c1 (single isomer, unassigned) [Example 67, 6-[({1-[2-(3-Chloro-6-methoxy-quinolin-4-yl)-2-hydroxy-ethyl]-piperidin-3-ylmethyl}-amino)-methyl]-7-fluoro-4H-benzo[1,4]thiazin-3-one] | ≤ 2
28 | COc1ccc2ncc(Cl)c(C(O)CN3CCCC(CNCc4ccc5c(c4)NC(=O)CS5)C3)c2c1 (single isomer, unassigned) [Example 68, 6-[({1-[2-(3-Chloro-6-methoxy-quinolin-4-yl)-2-hydroxy-ethyl]-piperidin-3-ylmethyl}-amino)-methyl]-4H-benzo[1,4]thiazin-3-one] | ≤ 2
